Laboratory results taken from US11547697B2, “Heterocyclic compounds and uses thereof” (MILLENNIUM PHARMACEUTICALS, INC., priority 2009, dated 2023).
Read-outs that look alike come from different tables or passages of the source.

Experiments:
[1] = biological target: p110α/p85α (Homo sapiens (Human), UniProt P42336); assay: PI 3-Kinase (human) HTRF assay, p110α/p85α; format: biochemical
[2] = biological target: p110γ (Homo sapiens (Human), UniProt P48736); assay: PI 3-Kinase (human) HTRF assay, p110γ; format: biochemical
Chain of p110γ (P48736 whole entry): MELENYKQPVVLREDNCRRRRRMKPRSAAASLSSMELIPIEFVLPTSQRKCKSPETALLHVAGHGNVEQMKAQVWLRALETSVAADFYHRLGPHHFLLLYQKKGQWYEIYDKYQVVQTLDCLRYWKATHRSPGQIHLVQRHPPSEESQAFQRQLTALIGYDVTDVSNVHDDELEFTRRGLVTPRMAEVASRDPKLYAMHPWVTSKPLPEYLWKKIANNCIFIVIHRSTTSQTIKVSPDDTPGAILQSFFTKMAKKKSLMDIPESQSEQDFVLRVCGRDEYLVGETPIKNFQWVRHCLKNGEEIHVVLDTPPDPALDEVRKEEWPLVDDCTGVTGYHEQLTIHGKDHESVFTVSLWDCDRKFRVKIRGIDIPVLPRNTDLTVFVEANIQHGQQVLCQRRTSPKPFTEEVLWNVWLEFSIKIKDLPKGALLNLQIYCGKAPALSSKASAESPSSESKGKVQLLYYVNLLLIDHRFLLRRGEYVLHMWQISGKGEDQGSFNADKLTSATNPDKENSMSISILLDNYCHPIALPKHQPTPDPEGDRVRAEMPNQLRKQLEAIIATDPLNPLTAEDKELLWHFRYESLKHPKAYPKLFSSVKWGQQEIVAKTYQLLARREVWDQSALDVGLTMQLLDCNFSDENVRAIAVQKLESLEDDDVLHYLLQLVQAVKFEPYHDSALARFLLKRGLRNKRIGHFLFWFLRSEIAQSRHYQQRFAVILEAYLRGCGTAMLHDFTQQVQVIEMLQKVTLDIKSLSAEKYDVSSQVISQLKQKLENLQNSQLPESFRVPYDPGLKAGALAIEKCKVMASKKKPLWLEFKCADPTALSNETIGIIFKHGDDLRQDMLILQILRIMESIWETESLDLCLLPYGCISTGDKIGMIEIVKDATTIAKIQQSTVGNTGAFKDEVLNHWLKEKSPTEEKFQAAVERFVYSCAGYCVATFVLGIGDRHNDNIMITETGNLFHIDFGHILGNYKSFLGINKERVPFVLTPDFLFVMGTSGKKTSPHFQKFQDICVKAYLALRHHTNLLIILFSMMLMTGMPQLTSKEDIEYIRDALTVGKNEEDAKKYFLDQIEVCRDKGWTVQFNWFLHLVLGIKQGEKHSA

[3] = in vitro, read-out: PI3K α IC50
[4] = in vitro, read-out: PI3K γ IC50

Chain of p110α/p85α (P42336 whole entry): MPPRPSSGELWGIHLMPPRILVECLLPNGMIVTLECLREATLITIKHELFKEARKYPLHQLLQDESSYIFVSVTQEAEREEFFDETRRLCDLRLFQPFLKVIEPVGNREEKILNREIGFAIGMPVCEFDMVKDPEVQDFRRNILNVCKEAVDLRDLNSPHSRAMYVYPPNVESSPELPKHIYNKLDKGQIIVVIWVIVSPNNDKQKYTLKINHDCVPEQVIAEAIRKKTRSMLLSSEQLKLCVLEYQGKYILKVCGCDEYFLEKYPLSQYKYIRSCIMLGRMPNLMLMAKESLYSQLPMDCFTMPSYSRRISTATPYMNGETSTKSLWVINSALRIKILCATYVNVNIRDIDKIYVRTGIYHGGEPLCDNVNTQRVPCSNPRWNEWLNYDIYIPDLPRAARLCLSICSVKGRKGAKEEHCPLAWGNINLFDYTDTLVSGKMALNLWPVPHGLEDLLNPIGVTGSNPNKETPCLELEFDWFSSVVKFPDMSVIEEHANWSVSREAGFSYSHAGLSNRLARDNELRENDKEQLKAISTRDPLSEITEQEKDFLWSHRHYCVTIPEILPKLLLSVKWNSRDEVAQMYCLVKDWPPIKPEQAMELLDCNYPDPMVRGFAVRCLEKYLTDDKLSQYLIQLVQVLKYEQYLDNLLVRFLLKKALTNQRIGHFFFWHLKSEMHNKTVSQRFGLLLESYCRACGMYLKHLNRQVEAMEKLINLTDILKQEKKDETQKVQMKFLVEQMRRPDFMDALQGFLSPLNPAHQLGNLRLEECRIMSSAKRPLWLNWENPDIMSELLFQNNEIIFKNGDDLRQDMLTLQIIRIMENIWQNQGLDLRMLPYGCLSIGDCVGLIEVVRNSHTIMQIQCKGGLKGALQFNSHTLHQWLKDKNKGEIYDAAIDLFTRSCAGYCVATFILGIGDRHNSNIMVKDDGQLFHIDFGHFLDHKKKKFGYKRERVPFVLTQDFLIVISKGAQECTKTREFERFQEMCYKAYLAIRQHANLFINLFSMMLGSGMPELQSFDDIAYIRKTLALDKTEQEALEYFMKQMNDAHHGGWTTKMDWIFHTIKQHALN
Chain of p110α/p85α (P27986 whole entry partner): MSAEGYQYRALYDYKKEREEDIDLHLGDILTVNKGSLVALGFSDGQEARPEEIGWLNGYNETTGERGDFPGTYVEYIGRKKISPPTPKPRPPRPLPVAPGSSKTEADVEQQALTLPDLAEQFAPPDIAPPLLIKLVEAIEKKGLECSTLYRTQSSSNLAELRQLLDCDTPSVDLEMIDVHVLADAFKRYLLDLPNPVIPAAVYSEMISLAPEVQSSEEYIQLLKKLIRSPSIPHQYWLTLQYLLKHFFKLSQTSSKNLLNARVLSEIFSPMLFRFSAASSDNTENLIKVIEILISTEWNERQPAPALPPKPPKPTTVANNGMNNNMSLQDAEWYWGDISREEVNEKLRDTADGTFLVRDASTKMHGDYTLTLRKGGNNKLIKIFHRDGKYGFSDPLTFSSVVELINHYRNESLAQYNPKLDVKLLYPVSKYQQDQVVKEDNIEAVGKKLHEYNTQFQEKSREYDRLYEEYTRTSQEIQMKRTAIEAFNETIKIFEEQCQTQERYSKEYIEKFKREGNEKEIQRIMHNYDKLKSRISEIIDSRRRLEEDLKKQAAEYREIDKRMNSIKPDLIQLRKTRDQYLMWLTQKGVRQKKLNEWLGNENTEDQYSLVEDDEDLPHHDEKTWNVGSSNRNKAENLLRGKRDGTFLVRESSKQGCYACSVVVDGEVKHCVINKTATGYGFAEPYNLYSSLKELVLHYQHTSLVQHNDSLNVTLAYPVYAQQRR

Nc1ncnc2ccc(-c3ccc4nccc(-c5ccncc5)c4c3)cc12 [compound 8]
IC50 ([1]; read-out: PI3K α IC50): < 10000 nM | IC50 ([2]; read-out: PI3K γ IC50): < 1 µM

Nc1nc2cc(-c3cc4nccc(-c5ccncc5)c4s3)ccc2o1 [compound 14]
IC50 ([1]; read-out: PI3K α IC50): < 10000 nM | IC50 ([2]; read-out: PI3K γ IC50): < 10 µM

Nc1noc2ccc(-c3ccc4nccc(-c5ccncc5)c4c3)cc12 [compound 18]
IC50 ([1]; read-out: PI3K α IC50): < 10000 nM | IC50 ([2]; read-out: PI3K γ IC50): < 10 µM

Nc1nc2cc(-c3c[nH]c4nccc(-c5ccncc5)c34)ccc2o1 [compound 25]
IC50 ([1]; read-out: PI3K α IC50): < 10000 nM | IC50 ([2]; read-out: PI3K γ IC50): < 10 µM

Nc1nc2cc(-c3ccc4nccc(NC5CCOCC5)c4c3)ccc2o1 [compound 32]
IC50 ([1]; read-out: PI3K α IC50): < 10000 nM | IC50 ([2]; read-out: PI3K γ IC50): < 10 µM

Nc1nc2cc(-c3ccc4ncc(N5CCS(=O)(=O)CC5)nc4c3)ccc2o1 [compound 98]
IC50 ([1]; read-out: PI3K α IC50): < 100 nM | IC50 ([2]; read-out: PI3K γ IC50): < 0.1 µM

CN1CCN(C(=O)c2cnc3ccc(-c4ccc5oc(N)nc5c4)nn23)CC1 [compound 104]
IC50 ([1]; read-out: PI3K α IC50): < 10000 nM | IC50 ([2]; read-out: PI3K γ IC50): < 10 µM

C[C@@H]1CN(C(=O)c2cnc3ccc(-c4ccc5oc(N)nc5c4)cn23)C[C@H](C)O1 [compound 106]
IC50 ([1]; read-out: PI3K α IC50): < 10000 nM | IC50 ([2]; read-out: PI3K γ IC50): < 10 µM

Nc1nc2cc(-c3ccc4ncc(C(=O)N5CCS(=O)(=O)CC5)n4c3)ccc2o1 [compound 107]
IC50 ([1]; read-out: PI3K α IC50): < 1000 nM | IC50 ([2]; read-out: PI3K γ IC50): < 10 µM

Nc1nc2ccc(-c3ccc4ncc(N5CCOCC5)nc4c3)cc2s1 [compound 114]
IC50 ([1]; read-out: PI3K α IC50): < 100 nM | IC50 ([2]; read-out: PI3K γ IC50): < 1 µM

C[C@@H]1CN(c2cnc3ccc(-c4ccc5oc(N)nc5c4)cc3n2)C[C@H](C)O1 [compound 132]
IC50 ([1]; read-out: PI3K α IC50): < 1000 nM | IC50 ([2]; read-out: PI3K γ IC50): < 10 µM

CCN1CCN(C(=O)c2cnc3ccc(-c4ccc5oc(N)nc5c4)cn23)CC1 [compound 141]
IC50 ([1]; read-out: PI3K α IC50): < 1000 nM | IC50 ([2]; read-out: PI3K γ IC50): < 10 µM

Nc1nc2cc(-c3ccc4ncc(C(=O)N5CCC(O)CC5)n4c3)ccc2o1 [compound 162]
IC50 ([1]; read-out: PI3K α IC50): < 1000 nM | IC50 ([2]; read-out: PI3K γ IC50): < 10 µM

Nc1nc2cc(-c3ccc4ncc(N5CCCCC5)nc4c3)ccc2o1 [compound 175]
IC50 ([1]; read-out: PI3K α IC50): < 100 nM | IC50 ([2]; read-out: PI3K γ IC50): < 10 µM

Cc1cn(-c2cnc3ccc(-c4ccc5oc(N)nc5c4)cc3n2)cn1 [compound 177]
IC50 ([1]; read-out: PI3K α IC50): < 100 nM | IC50 ([2]; read-out: PI3K γ IC50): < 1 µM

Cc1ccc(-c2cnc3ccc(-c4ccc5oc(N)nc5c4)cc3n2)cn1 [compound 194]
IC50 ([1]; read-out: PI3K α IC50): < 100 nM | IC50 ([2]; read-out: PI3K γ IC50): < 0.1 µM

CC(C)n1cnc2ccc(-c3ccc4oc(N)nc4c3)cc2c1=O [compound 206]
IC50 [1, 3]: < 100 nM | IC50 [2, 4]: < 10 µM

Cc1ccn(C2CCN(c3cnc4ccc(-c5ccc6oc(N)nc6c5)cc4n3)CC2)n1 [compound 223]
IC50 [1, 3]: < 100 nM | IC50 [2, 4]: < 1 µM

Nc1ncc(-c2ccc3oc(N)nc3c2)cn1 [compound 233]
IC50 [2, 4]: < 10 µM

CC(=O)Nc1nc2cc(-c3ccc4oc(N)nc4c3)ccc2s1 [compound 250]
IC50 [2, 4]: < 0.1 µM

Nc1nc2cc(-c3ccc4ncn(C5CC5)c(=O)c4c3)ccc2o1 [compound 254]
IC50 [1, 3]: < 1000 nM | IC50 [2, 4]: < 1 µM

NC(=O)[C@@H]1CCCN1C(=O)c1cnc2ccc(-c3ccc4oc(N)nc4c3)cn12 [compound 259]
IC50 [1, 3]: < 1000 nM | IC50 [2, 4]: < 10 µM

NC(=O)[C@H]1CCCN1C(=O)c1cnc2ccc(-c3ccc4oc(N)nc4c3)cn12 [compound 260]
IC50 [1, 3]: < 1000 nM | IC50 [2, 4]: < 10 µM

Cc1ccn(C2CCN(C(=O)c3cnc4ccc(-c5ccc6oc(N)nc6c5)cn34)CC2)n1 [compound 297]
IC50 [1, 3]: < 1000 nM | IC50 [2, 4]: < 10 µM

Nc1nc2cc(-c3ccc4ncc(N5CCC(n6cccn6)CC5)nc4c3)ccc2o1 [compound 337]
IC50 [1, 3]: < 100 nM | IC50 [2, 4]: < 1 µM

Nc1nc2cc(-c3ccc4ncc(C(=O)N5CC5)n4c3)ccc2o1 [compound 340]
IC50 [1, 3]: < 1000 nM | IC50 [2, 4]: < 1 µM

Cc1c(-c2ccc3oc(N)nc3c2)ccc2ncc(N3CC(N4CCNCC4)C3)nc12 [compound 386]
IC50 [1, 3]: < 100 nM

Nc1nc2cc(-c3ccc4ncc(N5CCNCC5=O)nc4c3)ccc2o1 [compound 389]
IC50 [1, 3]: < 1000 nM | IC50 [2, 4]: < 10 µM

CN1CCN(c2cnc3ccc(-c4ccc5oc(N)nc5c4)cc3n2)C(=O)C1 [compound 390]
IC50 [1, 3]: < 1000 nM | IC50 [2, 4]: < 10 µM

CCN1CCN(c2cnc3ccc(-c4ccc5oc(N)nc5c4)cc3n2)C(=O)C1 [compound 391]
IC50 [1, 3]: < 10000 nM

Nc1nc2cc(-c3ccc4ncc(N5CCN(CC6CC6)CC5=O)nc4c3)ccc2o1 [compound 393]
IC50 [1, 3]: < 10000 nM

Nc1nc2cc(-c3ccc4ncc(N5CCN(CC(F)(F)F)CC5)nc4c3)ccc2o1 [compound 395]
IC50 [1, 3]: < 100 nM | IC50 [2, 4]: < 0.1 µM

CC(=O)Nc1cc2ccc(-c3cc(F)c4oc(N)nc4c3)cn2n1 [compound 401]
IC50 ([2]; read-out: PI3K γ In Vitro IC50): < 10 µM

C[C@H]1CN(c2cc3cc(-c4ccc5oc(N)nc5c4)ccc3nc2N)CCN1 [compound 403]
IC50 ([1]; read-out: PI3K α In Vitro IC50): < 10000 nM

O=C(c1cnc2ccc(-c3ccc4oc(NC5CC5)nc4c3)cn12)N1CCOCC1 [compound 409]
IC50 ([1]; read-out: PI3K α In Vitro IC50): < 10000 nM

Nc1ncc(-c2ccc3ncc(C(=O)N4CCOCC4)n3c2)cc1C(F)(F)F [compound 410]
IC50 ([1]; read-out: PI3K α In Vitro IC50): < 10000 nM

Nc1nc2nc(-c3ccc4ncc(C(=O)N5CCOCC5)n4c3)ccc2o1 [compound 412]
IC50 ([1]; read-out: PI3K α In Vitro IC50): < 10000 nM

COc1ncc(-c2ccc3ncc(C(=O)N4CCOCC4)n3c2)cc1N [compound 414]
IC50 ([1]; read-out: PI3K α In Vitro IC50): < 10000 nM

Nc1cc(-c2ccc3ncc(C(=O)N4CCOCC4)n3c2)cnc1Cl [compound 415]
IC50 ([1]; read-out: PI3K α In Vitro IC50): < 10000 nM

Nc1nc2cc(-c3cc(F)c4ncc(C(=O)N5CCOCC5)n4c3)ccc2o1 [compound 438]
IC50 ([1]; read-out: PI3K α In Vitro IC50): < 10000 nM

Nc1nc2ccc(-c3cc(F)c4ncc(C(=O)N5CCOCC5)n4c3)cc2o1 [compound 439]
IC50 ([1]; read-out: PI3K α In Vitro IC50): < 10000 nM

COc1ccc(-c2ccc3ncc(C(=O)N4CCOCC4)n3c2)cc1S(=O)(=O)Nc1ccccc1 [compound 444]
IC50 ([1]; read-out: PI3K α In Vitro IC50): < 10000 nM

CN1CCN(n2cnc3ccc(-c4ccc5oc(N)nc5c4)cc3c2=O)CC1 [compound 446]
IC50 ([1]; read-out: PI3K α In Vitro IC50): < 1000 nM

O=C(c1cnc2ccc(-c3cncc(S(=O)(=O)Nc4ccccc4)c3)cn12)N1CCOCC1 [compound 447]
IC50 ([1]; read-out: PI3K α In Vitro IC50): < 10000 nM

Cc1cc(-c2ccc3oc(N)nc3c2)cn2c(C(=O)N3CCOCC3)cnc12 [compound 448]
IC50 ([1]; read-out: PI3K α In Vitro IC50): < 1000 nM | IC50 ([2]; read-out: PI3K γ In Vitro IC50): < 10 µM

CNS(=O)(=O)c1cncc(-c2ccc3ncc(C(=O)N4CCOCC4)n3c2)c1 [compound 450]
IC50 ([1]; read-out: PI3K α In Vitro IC50): < 10000 nM

O=C(c1cnc2ccc(-c3cccc(NS(=O)(=O)c4ccccc4)c3)cn12)N1CCOCC1 [compound 453]
IC50 ([1]; read-out: PI3K α In Vitro IC50): < 10000 nM | IC50 ([2]; read-out: PI3K γ In Vitro IC50): < 10 µM

COc1ccc(-c2ccc3ncc(C(=O)N4CCOCC4)n3c2)cc1NS(=O)(=O)c1ccccc1 [compound 455]
IC50 ([1]; read-out: PI3K α In Vitro IC50): < 10000 nM | IC50 ([2]; read-out: PI3K γ In Vitro IC50): < 10 µM

O=C(c1cnc2ccc(-c3ccc(Cl)c(NS(=O)(=O)c4ccccc4)c3)cn12)N1CCOCC1 [compound 459]
IC50 ([1]; read-out: PI3K α In Vitro IC50): < 1000 nM | IC50 ([2]; read-out: PI3K γ In Vitro IC50): < 1 µM

CS(=O)(=O)Nc1cc(-c2ccc3ncc(C(=O)N4CCOCC4)n3c2)ccc1Cl [compound 460]
IC50 ([1]; read-out: PI3K α In Vitro IC50): < 10000 nM

Nc1nc2cc(-c3ccc4ncc(C(=O)N5CC[C@H](N6CCOCC6)C5)n4c3)ccc2o1 [compound 465]
IC50 ([1]; read-out: PI3K α In Vitro IC50): < 100 nM | IC50 ([2]; read-out: PI3K γ In Vitro IC50): < 1 µM

Nc1nsc2c(-c3ccc4ncc(C(=O)N5CCOCC5)n4c3)cccc12 [compound 474]
IC50 ([1]; read-out: PI3K α In Vitro IC50): < 10000 nM

Nc1nc2cc(-c3ccc4ncc(C(=O)N5CC[C@H](F)C5)n4c3)ccc2o1 [compound 476]
IC50 ([1]; read-out: PI3K α In Vitro IC50): < 100 nM | IC50 ([2]; read-out: PI3K γ In Vitro IC50): < 0.1 µM

Nc1nc2cccc(-c3ccc4ncc(C(=O)N5CCOCC5)n4c3)c2s1 [compound 485]
IC50 ([1]; read-out: PI3K α In Vitro IC50): < 10000 nM

CNc1noc2cc(-c3ccc4ncc(C(=O)N5CCOCC5)n4c3)ccc12 [compound 486]
IC50 ([1]; read-out: PI3K α In Vitro IC50): < 10000 nM | IC50 ([2]; read-out: PI3K γ In Vitro IC50): < 10 µM

Nc1nsc2cc(-c3ccc4ncc(C(=O)N5CCOCC5)n4c3)ccc12 [compound 489]
IC50 ([1]; read-out: PI3K α In Vitro IC50): < 10000 nM

Nc1nc2cc(-c3ccc4ncc(C(=O)N5CCC(N6CC(F)(F)C6)C5)n4c3)ccc2o1 (stereo not shown) [compound 498]
IC50 ([1]; read-out: PI3K α In Vitro IC50): < 1000 nM | IC50 ([2]; read-out: PI3K γ In Vitro IC50): < 10 µM

Nc1nc2cc(-c3ccc4ncc(C(=O)N5CCC6(C5)OCCO6)n4c3)ccc2o1 [compound 499]
IC50 ([1]; read-out: PI3K α In Vitro IC50): < 1000 nM | IC50 ([2]; read-out: PI3K γ In Vitro IC50): < 10 µM

Nc1nc2cc(-c3ccc4ncc(C(=O)N5CCC(F)(F)CC5)n4c3)ccc2o1 [compound 501]
IC50 ([1]; read-out: PI3K α In Vitro IC50): < 1000 nM | IC50 ([2]; read-out: PI3K γ In Vitro IC50): < 10 µM

Nc1nc2cc(-c3ccc4ncc(C(=O)N5CCC(F)CC5)n4c3)ccc2o1 [compound 503]
IC50 ([1]; read-out: PI3K α In Vitro IC50): < 1000 nM | IC50 ([2]; read-out: PI3K γ In Vitro IC50): < 0.1 µM

O=C(c1cnc2ccc(-c3cccc4[nH]ncc34)cn12)N1CCOCC1 [compound 506]
IC50 ([1]; read-out: PI3K α In Vitro IC50): < 100 nM

CC1(C)CN(C(=O)c2cnc3ccc(-c4ccc5oc(N)nc5c4)cn23)CCO1 [compound 513]
IC50 ([1]; read-out: PI3K α In Vitro IC50): < 1000 nM | IC50 ([2]; read-out: PI3K γ In Vitro IC50): < 10 µM

CC1(C)COCCN1C(=O)c1cnc2ccc(-c3ccc4oc(N)nc4c3)cn12 [compound 514]
IC50 ([1]; read-out: PI3K α In Vitro IC50): < 1000 nM

O=C(c1cnc2ccc(-c3cnc(Cl)c4[nH]ncc34)cn12)N1CCOCC1 [compound 516]
IC50 ([1]; read-out: PI3K α In Vitro IC50): < 1000 nM
